Converted amounts (≈) assume the structure as drawn.
How the values were obtained:
[1] = system: P388 murine lymphocytic leukemia cell line; test: Murine P388 lymphocytic leukemia inhibitory activity; type: cell-based; settings: Mus musculus, P388, read-out: Murine P388 Lymphocytic Leukemia Inhibitory Activity (ED50)
[2] = system: BXPC-3 (pancreas); test: Human cancer cell growth inhibition, sulforhodamine B assay, BXPC-3; type: cell-based; settings: BXPC-3, 48 h, read-out: Growth Inhibition of Human Cancer Cell Lines (GI50), BXPC-3
Experimental: (§1) Cancer Cell Line Procedures. The human cancer cell growth inhibition data were determined using the standard sulforhodamine B assay of the US National Cancer Institute as previously described.^35 In short, cells in a 5% fetal bovine serum/RPMI1640 medium were inoculated in 96-well plates and incubated for 24 h. Next, serial dilutions of the samples were added. After 48 h, the plates were fixed with trichloroacetic acid, stained with sulforhodamine B, and read with an automated microplate reader. A growth inhibition of 50% (GI50 or the drug concentration causing a 50% reduction in the net protein increase) was determined from optical density data employing Immunosoft® software.

[3] = system: MCF-7 (breast); test: Human cancer cell growth inhibition, sulforhodamine B assay, MCF-7; type: cell-based; settings: MCF7, 48 h, read-out: Growth Inhibition of Human Cancer Cell Lines (GI50), MCF-7
Experimental: as §1

[4] = system: SF-268 (CNS); test: Human cancer cell growth inhibition, sulforhodamine B assay, SF-268; type: cell-based; settings: SF-268, 48 h, read-out: Growth Inhibition of Human Cancer Cell Lines (GI50), SF-268
Experimental: as §1

[5] = system: NCI-H460 (lung); test: Human cancer cell growth inhibition, sulforhodamine B assay, NCI-H460; type: cell-based; settings: NCI-H460, 48 h, read-out: Growth Inhibition of Human Cancer Cell Lines (GI50), NCI-H460
Experimental: as §1

[6] = system: KM20L2 (colon); test: Human cancer cell growth inhibition, sulforhodamine B assay, KM20L2; type: cell-based; settings: KM-20L2, 48 h, read-out: Growth Inhibition of Human Cancer Cell Lines (GI50), KM20L2
Experimental: as §1

[7] = system: DU-145 (prostate); test: Human cancer cell growth inhibition, sulforhodamine B assay, DU-145; type: cell-based; settings: DU-145, 48 h, read-out: Growth Inhibition of Human Cancer Cell Lines (GI50), DU-145
Experimental: as §1

Row | SMILES | IC50 [1] | GI50 [2] | GI50 [3] | GI50 [4] | GI50 [5] | GI50 [6] | GI50 [7] | melting point
1 | COc1cc(C2C3=C(COC3=O)N(CCc3ccc(F)cc3)c3cc4c(cc32)OCO4)cc(OC)c1OC (stereo not shown) [Compound 25, 6,7-Methylenedioxy-4-[2-(4-fluorophenyl)-ethyl]-9-(3,4,5-trimethoxyphenyl)-4,9-dihydro-3H-furo[3,4-b]quinolin-1-one] | 3.3 µg/mL (≈ 6.35 µM) | 0.9 µg/mL (≈ 1.73 µM) | 0.42 µg/mL (≈ 0.808 µM) | 0.52 µg/mL (≈ 1 µM) | 2.3 µg/mL (≈ 4.43 µM) | 2.4 µg/mL (≈ 4.62 µM) | 2.5 µg/mL (≈ 4.81 µM) | 174 to 177 °C
2 | COc1cc(C2C3=C(COC3=O)Nc3cc4c(cc32)OCO4)cc(OC)c1O (stereo not shown) [Compound 29, 6,7-Methylenedioxy-9-(4-hydroxy-3,5-dimethoxy-phenyl)-4,9-dihydro-3H-furo[3,4-b]quinolin-1-one] | 0.028 µg/mL (≈ 0.073 µM) | 0.028 µg/mL (≈ 0.073 µM) | 0.025 µg/mL (≈ 0.0652 µM) | 0.026 µg/mL (≈ 0.0678 µM) | 0.027 µg/mL (≈ 0.0704 µM) | 0.032 µg/mL (≈ 0.0835 µM) | 0.033 µg/mL (≈ 0.0861 µM) | –
3 | COc1cc(C2C3=C(COC3=O)N(CCCO)c3cc4c(cc32)OCO4)cc(OC)c1OC (stereo not shown) [Compound 14, 6,7-Methylenedioxy-4-(3-hydroxy-propyl)-9-(3,4,5-trimethoxyphenyl)-4,9-dihydro-3H-furo[3,4-b]quinolin-1-one] | 0.28 µg/mL (≈ 0.615 µM) | 0.48 µg/mL (≈ 1.05 µM) | 0.34 µg/mL (≈ 0.746 µM) | 0.36 µg/mL (≈ 0.79 µM) | 0.33 µg/mL (≈ 0.725 µM) | 0.38 µg/mL (≈ 0.834 µM) | 0.49 µg/mL (≈ 1.08 µM) | 269 to 272 °C (dec.)
4 | COc1cc(C2C3=C(COC3=O)N(C3CCC3)c3cc4c(cc32)OCO4)cc(OC)c1OC (stereo not shown) [Compound 17, 6,7-Methylenedioxy-4-(cyclobutyl)-9-(3,4,5-trimethoxyphenyl)-4,9-dihydro-3H-furo[3,4-b]quinolin-1-one] | 0.24 µg/mL (≈ 0.532 µM) | 0.04 µg/mL (≈ 0.0886 µM) | 0.026 µg/mL (≈ 0.0576 µM) | 0.026 µg/mL (≈ 0.0576 µM) | 0.028 µg/mL (≈ 0.062 µM) | 0.032 µg/mL (≈ 0.0709 µM) | 0.047 µg/mL (≈ 0.104 µM) | 224 to 226 °C
5 | O=C1OCC2=C1C(c1cccc3c1OCO3)c1cc3c(cc1N2)OCO3 (stereo not shown) [Compound 15d, 6,7-Methylenedioxy-9-(2,3-methylenedioxyphenyl)-4,9-dihydro-3H-furo[3,4-b]quinolin-1-one] | 0.17 µg/mL (≈ 0.484 µM) | 0.065 µg/mL (≈ 0.185 µM) | 0.0039 µg/mL (≈ 0.0111 µM) | 0.0089 µg/mL (≈ 0.0253 µM) | 0.021 µg/mL (≈ 0.0598 µM) | – | 0.041 µg/mL (≈ 0.117 µM) | 324 to 327 °C
6 | COc1cc(C2C3=C(COC3=O)N(C3CCCC3)c3cc4c(cc32)OCO4)cc(OC)c1O (stereo not shown) [Compound 30, 6,7-Methylenedioxy-4-(cyclopentyl)-9-(4-hydroxy-3,5-dimethoxy-phenyl)-4,9-dihydro-3H-furo[3,4-b]quinolin-1-one] | 30.3 µg/mL (≈ 67.1 µM) | 0.53 µg/mL (≈ 1.17 µM) | 0.32 µg/mL (≈ 0.709 µM) | 0.39 µg/mL (≈ 0.864 µM) | 0.33 µg/mL (≈ 0.731 µM) | 2.1 µg/mL (≈ 4.65 µM) | 0.41 µg/mL (≈ 0.908 µM) | –
7 | COc1cc(C2C3=C(COC3=O)N(CCCn3ccnc3)c3cc4c(cc32)OCO4)cc(OC)c1OC (stereo not shown) [Compound 28, 6,7-Methylenedioxy-4-(3-imidazol-1-yl-propyl)-9-(3,4,5-trimethoxyphenyl)-4,9-dihydro-3H-furo[3,4-b]quinolin-1-one] | 2 µg/mL (≈ 3.96 µM) | 2.9 µg/mL (≈ 5.74 µM) | 0.64 µg/mL (≈ 1.27 µM) | 2.5 µg/mL (≈ 4.95 µM) | 3 µg/mL (≈ 5.93 µM) | 2.2 µg/mL (≈ 4.35 µM) | 2.1 µg/mL (≈ 4.15 µM) | 206 °C (dec.)
8 | COc1cc(C2C3=C(COC3=O)N(Cc3ccco3)c3cc4c(cc32)OCO4)cc(OC)c1O (stereo not shown) [Compound 32, 6,7-Methylenedioxy-4-(furan-2-ylmethyl)-9-(4-hydroxy-3,5-dimethoxy-phenyl)-4,9-dihydro-3H-furo[3,4-b]quinolin-1-one] | 0.89 µg/mL (≈ 1.92 µM) | 1 µg/mL (≈ 2.16 µM) | 0.054 µg/mL (≈ 0.117 µM) | 0.061 µg/mL (≈ 0.132 µM) | 0.24 µg/mL (≈ 0.518 µM) | – | 0.39 µg/mL (≈ 0.842 µM) | –
9 | COc1cc(C2C3=C(COC3=O)N(C3CCCCC3)c3cc4c(cc32)OCO4)cc(OC)c1OC (stereo not shown) [Compound 19, 6,7-Methylenedioxy-4-(cyclohexyl)-9-(3,4,5-trimethoxyphenyl)-4,9-dihydro-3H-furo[3,4-b]quinolin-1-one] | 3.4 µg/mL (≈ 7.09 µM) | 0.17 µg/mL (≈ 0.355 µM) | 0.052 µg/mL (≈ 0.108 µM) | 0.066 µg/mL (≈ 0.138 µM) | 0.27 µg/mL (≈ 0.563 µM) | 0.24 µg/mL (≈ 0.5 µM) | 0.27 µg/mL (≈ 0.563 µM) | 235 to 237 °C

Reference: patent publication US11098052B2, “4-azapodophylotoxins compounds” (Arizona Board of Regents on behalf of Arizona State …, priority 2016, dated 2021)
